According to PubChem BioAssay (NCI):
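A five-concentration, 48-hour dose response in 96-well plates underlies each endpoint, interpolated linearly between surrounding concentrations. GI50: concentration for 50% inhibition of growth. TGI marks complete inhibition of growth.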

How the values were obtained:
Assay in all cases: NCI anticancer screen, dose series, 48 h
HOP-62 NSCLC = system: HOP-62 NSCLC
UO-31 renal = system: UO-31 renal
BT-549 breast = system: BT-549 breast
SNB-75 CNS = system: SNB-75 CNS
K-562 leukemia = system: K-562 leukemia
HL-60(TB) leukemia = system: HL-60(TB) leukemia
MDA-MB-435 = system: MDA-MB-435
HCC-2998 colon = system: HCC-2998 colon
SNB-19 CNS = system: SNB-19 CNS
MCF7 breast = system: MCF7 breast

CC#CC(=O)N1CCC[C@H]1c1nc(-c2ccc(C(=O)Nc3ccccn3)cc2)c2c(N)nccn12
GI50 (HOP-62 NSCLC): > 100 µM | TGI (HOP-62 NSCLC): > 100 µM | GI50 (UO-31 renal): 32.1 µM | TGI (UO-31 renal): > 100 µM | GI50 (BT-549 breast): > 96.5 µM | TGI (BT-549 breast): > 100 µM | GI50 (SNB-75 CNS): 24.5 µM | TGI (SNB-75 CNS): > 100 µM | GI50 (K-562 leukemia): > 88.2 µM | TGI (K-562 leukemia): > 100 µM | GI50 (HL-60(TB) leukemia): > 100 µM | TGI (HL-60(TB) leukemia): > 100 µM | GI50 (MDA-MB-435): 44.1 µM | TGI (MDA-MB-435): > 100 µM | GI50 (HCC-2998 colon): > 100 µM | TGI (HCC-2998 colon): > 100 µM | GI50 (SNB-19 CNS): > 79.9 µM | TGI (SNB-19 CNS): > 100 µM | GI50 (MCF7 breast): 58 µM | TGI (MCF7 breast): > 100 µM

Fc1ccccc1C1CC(C(c2ccccc2)c2ccccc2)=Nc2ccccc2S1 (centres undefined)
TGI (HOP-62 NSCLC): 26.9 µM | TGI (UO-31 renal): 28.8 µM | TGI (SNB-75 CNS): 5.48 µM | TGI (K-562 leukemia): 10.6 µM | TGI (HL-60(TB) leukemia): 16.6 µM | TGI (HCC-2998 colon): 17.6 µM | TGI (SNB-19 CNS): 32.2 µM

O=c1nc2cc(-c3ccccc3)[nH]c2nn1-c1c(Cl)cc(Cl)cc1Cl
TGI (HOP-62 NSCLC): 56.5 µM | TGI (UO-31 renal): 47 µM | TGI (K-562 leukemia): > 100 µM | TGI (HL-60(TB) leukemia): 57.1 µM | TGI (HCC-2998 colon): 32 µM | TGI (SNB-19 CNS): > 100 µM

COc1cc(C2C(C(=O)Nc3ccccc3)=C(C)NC(C)=C2C(=O)Nc2ccccc2)ccc1O
TGI (HOP-62 NSCLC): > 100 µM | TGI (UO-31 renal): > 100 µM | TGI (SNB-75 CNS): > 100 µM | TGI (K-562 leukemia): > 100 µM | TGI (HL-60(TB) leukemia): 54.2 µM | TGI (HCC-2998 colon): > 100 µM | TGI (SNB-19 CNS): > 100 µM

COc1ccc(O)c2c1C(=O)CCCC2=O
TGI (HOP-62 NSCLC): > 100 µM | TGI (UO-31 renal): > 100 µM | TGI (K-562 leukemia): > 100 µM | TGI (HL-60(TB) leukemia): > 100 µM | TGI (HCC-2998 colon): > 100 µM | TGI (SNB-19 CNS): > 100 µM

C=C(C)[C@H]1CC/C(C)=C/CCC(C)C(=O)CC/C(CO)=C\[C@@H]1O (some centres undefined)
GI50 (HOP-62 NSCLC): > 100 µM | TGI (HOP-62 NSCLC): > 100 µM | GI50 (UO-31 renal): > 100 µM | TGI (UO-31 renal): > 100 µM | GI50 (BT-549 breast): 88.1 µM | TGI (BT-549 breast): > 100 µM | GI50 (K-562 leukemia): 65.6 µM | TGI (K-562 leukemia): > 100 µM | GI50 (HL-60(TB) leukemia): 45.4 µM | TGI (HL-60(TB) leukemia): > 100 µM | GI50 (MDA-MB-435): 49.2 µM | TGI (MDA-MB-435): > 100 µM | GI50 (HCC-2998 colon): > 100 µM | TGI (HCC-2998 colon): > 100 µM | GI50 (MCF7 breast): > 100 µM | TGI (MCF7 breast): > 100 µM

COc1ccc(-c2ccc(-c3ccc(C(=N)N)cn3)s2)cc1Cl
GI50 (HOP-62 NSCLC): 1.79 µM | TGI (HOP-62 NSCLC): 3.83 µM | GI50 (UO-31 renal): 1.59 µM | TGI (UO-31 renal): 3.09 µM | GI50 (BT-549 breast): 1.67 µM | TGI (BT-549 breast): 3.43 µM | GI50 (SNB-75 CNS): 1.45 µM | TGI (SNB-75 CNS): 2.85 µM | GI50 (MDA-MB-435): 1.43 µM | TGI (MDA-MB-435): 2.73 µM | GI50 (HCC-2998 colon): 1.89 µM | TGI (HCC-2998 colon): 3.69 µM | GI50 (SNB-19 CNS): 1.73 µM | TGI (SNB-19 CNS): 3.61 µM | GI50 (MCF7 breast): 1.52 µM | TGI (MCF7 breast): 3.29 µM

COc1ccc2c(c1)OC13Oc4cc(OC)ccc4C=C1CCCC3=C2
GI50 (HOP-62 NSCLC): > 100 µM | TGI (HOP-62 NSCLC): > 100 µM | GI50 (BT-549 breast): > 100 µM | TGI (BT-549 breast): > 100 µM | GI50 (K-562 leukemia): > 100 µM | TGI (K-562 leukemia): > 100 µM | GI50 (HL-60(TB) leukemia): > 100 µM | TGI (HL-60(TB) leukemia): > 100 µM | GI50 (MDA-MB-435): 5.52 µM | TGI (MDA-MB-435): > 100 µM | GI50 (HCC-2998 colon): > 100 µM | TGI (HCC-2998 colon): > 100 µM | GI50 (SNB-19 CNS): > 100 µM | TGI (SNB-19 CNS): > 100 µM | GI50 (MCF7 breast): 4.8 µM | TGI (MCF7 breast): > 100 µM

C[Si](C)(C)/C=C/CN1C(=O)CCC1O (centres undefined)
TGI (HOP-62 NSCLC): > 100 µM | TGI (UO-31 renal): > 100 µM | TGI (SNB-75 CNS): > 100 µM | TGI (K-562 leukemia): > 100 µM | TGI (HL-60(TB) leukemia): > 100 µM | TGI (HCC-2998 colon): > 100 µM | TGI (SNB-19 CNS): > 100 µM

CN(O)C(=O)Cc1ccccc1
TGI (HOP-62 NSCLC): > 100 µM | TGI (UO-31 renal): > 100 µM | TGI (SNB-75 CNS): > 100 µM | TGI (K-562 leukemia): > 100 µM | TGI (HL-60(TB) leukemia): > 100 µM | TGI (HCC-2998 colon): > 100 µM | TGI (SNB-19 CNS): > 100 µM

C=C(C)C1/C=C(/C(C)C)CC[C@]2(C)O[C@@H]2CC[C@H](C)CC1=O (some centres undefined)
GI50 (HOP-62 NSCLC): 76 µM | TGI (HOP-62 NSCLC): > 100 µM | GI50 (UO-31 renal): 28.6 µM | TGI (UO-31 renal): 98.1 µM | GI50 (K-562 leukemia): 33 µM | TGI (K-562 leukemia): > 100 µM | GI50 (MDA-MB-435): 39 µM | TGI (MDA-MB-435): > 100 µM | GI50 (HCC-2998 colon): 99.9 µM | TGI (HCC-2998 colon): > 100 µM | GI50 (SNB-19 CNS): > 100 µM | TGI (SNB-19 CNS): > 100 µM | GI50 (MCF7 breast): 50.7 µM | TGI (MCF7 breast): > 100 µM

CCNCC(O)c1ccc(N)c([N+](=O)[O-])c1 (centres undefined)
TGI (HOP-62 NSCLC): > 100 µM | TGI (UO-31 renal): > 100 µM | TGI (BT-549 breast): > 100 µM | TGI (SNB-75 CNS): > 100 µM | TGI (K-562 leukemia): > 100 µM | TGI (HL-60(TB) leukemia): > 100 µM | TGI (MDA-MB-435): > 100 µM | TGI (SNB-19 CNS): > 100 µM | TGI (MCF7 breast): > 100 µM

COc1cc(Br)c(CC2=NCCc3cc(OC)c(OC)cc32)cc1OC
TGI (HOP-62 NSCLC): > 100 µM | TGI (UO-31 renal): 95.1 µM | TGI (SNB-75 CNS): > 100 µM | TGI (K-562 leukemia): > 100 µM | TGI (HL-60(TB) leukemia): 38 µM | TGI (HCC-2998 colon): 43.4 µM | TGI (SNB-19 CNS): > 100 µM

COc1cc2c(cc1C)n(O)c(C)c(C(=O)C/C(=N/NC(=O)C[N+](C)(C)C)C(=O)Nc1cccc(Cl)c1C)[n+]2=O
TGI (HOP-62 NSCLC): > 100 µM | TGI (UO-31 renal): > 100 µM | TGI (SNB-75 CNS): > 100 µM | TGI (K-562 leukemia): > 100 µM | TGI (HL-60(TB) leukemia): > 100 µM | TGI (HCC-2998 colon): > 100 µM | TGI (SNB-19 CNS): > 100 µM

O=c1cccccc1NCCCCNc1cccccc1=O
TGI (HOP-62 NSCLC): > 100 µM | TGI (UO-31 renal): > 100 µM | TGI (SNB-75 CNS): > 100 µM | TGI (K-562 leukemia): > 100 µM | TGI (HL-60(TB) leukemia): > 100 µM | TGI (HCC-2998 colon): > 100 µM | TGI (SNB-19 CNS): > 100 µM

COc1cccc(C2C(C(=O)Nc3cc(=O)n(C)c(=O)n3C)=C(C)NC(C)=C2C(=O)Nc2cc(=O)n(C)c(=O)n2C)c1O
TGI (HOP-62 NSCLC): > 100 µM | TGI (UO-31 renal): > 100 µM | TGI (SNB-75 CNS): > 100 µM | TGI (K-562 leukemia): > 100 µM | TGI (HL-60(TB) leukemia): > 100 µM | TGI (HCC-2998 colon): > 100 µM | TGI (SNB-19 CNS): > 100 µM

CC1OC(O)C(O)C(O)C1O (centres undefined)
TGI (HOP-62 NSCLC): > 100 µM | TGI (UO-31 renal): > 100 µM | TGI (BT-549 breast): > 100 µM | TGI (SNB-75 CNS): > 100 µM | TGI (K-562 leukemia): > 100 µM | TGI (MDA-MB-435): > 100 µM | TGI (SNB-19 CNS): > 100 µM | TGI (MCF7 breast): > 100 µM

Cc1ccc(Nc2ccc(Nc3ccc(C)cc3)c3c2C(=O)c2c(O)ccc(O)c2C3=O)cc1
TGI (HOP-62 NSCLC): > 100 µM | TGI (UO-31 renal): > 100 µM | TGI (SNB-75 CNS): > 100 µM | TGI (K-562 leukemia): > 100 µM | TGI (HL-60(TB) leukemia): > 100 µM | TGI (HCC-2998 colon): > 100 µM | TGI (SNB-19 CNS): > 100 µM

O=[N+]([O-])c1ccccc1C1N2CCCCC2[C@@H]2c3[nH]c4ccccc4c3CCN12 (some centres undefined)
TGI (HOP-62 NSCLC): 29.2 µM | TGI (UO-31 renal): 23.5 µM | TGI (K-562 leukemia): 14 µM | TGI (HL-60(TB) leukemia): 16.8 µM | TGI (SNB-19 CNS): 33.4 µM

O=c1[nH]c(=S)[nH]c(O)c1/C=C1\C=CC=N1
TGI (HOP-62 NSCLC): 97.6 µM | TGI (UO-31 renal): 31.2 µM | TGI (SNB-75 CNS): 42.5 µM | TGI (K-562 leukemia): > 100 µM | TGI (HL-60(TB) leukemia): > 100 µM | TGI (HCC-2998 colon): 25 µM | TGI (SNB-19 CNS): > 100 µM

CCC1(CN(C)C)CC/C(=C\c2ccc3c(c2)OCO3)C1=O (centres undefined)
TGI (HOP-62 NSCLC): > 100 µM | TGI (UO-31 renal): > 100 µM | TGI (SNB-75 CNS): > 100 µM | TGI (K-562 leukemia): > 100 µM | TGI (HL-60(TB) leukemia): > 100 µM | TGI (HCC-2998 colon): > 100 µM | TGI (SNB-19 CNS): > 100 µM

Cc1nc(C(N)=S)sc1C(=O)/C=C/c1cccc(O)c1
TGI (HOP-62 NSCLC): > 100 µM | TGI (UO-31 renal): > 100 µM | TGI (SNB-75 CNS): > 100 µM | TGI (K-562 leukemia): 78.3 µM | TGI (HL-60(TB) leukemia): > 100 µM | TGI (HCC-2998 colon): > 100 µM
